Data taken from ChEMBL document CHEMBL1201862, “PubChem BioAssay data set” (2004).
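48-hour exposure; five concentrations; linearly interpolated endpoints. GI50 = concentration required for 50% inhibition of growth.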 The source made the active and inactive calls. No stated cut-off is given here; in the data, active = GI50 up to about 1.1 µM and inactive = higher.

Key:
Experiment in all cases: NCI-60 cell line screen, 48 h
UACC-62 = test system: UACC-62
SK-OV-3 = test system: SK-OV-3
MDA-MB-231 = test system: MDA-MB-231
HCT-116 = test system: HCT-116
IGROV-1 = test system: IGROV-1
OVCAR-4 = test system: OVCAR-4
K562 = test system: K562
HCT-15 = test system: HCT-15
NCI-H460 = test system: NCI-H460
SK-MEL-28 = test system: SK-MEL-28
SF-539 = test system: SF-539
MCF7 = test system: MCF7
HL-60 = test system: HL-60
OVCAR-3 = test system: OVCAR-3
OVCAR-8 = test system: OVCAR-8
UO-31 = test system: UO-31
COLO 205 = test system: COLO 205
EKVX = test system: EKVX
SK-MEL-5 = test system: SK-MEL-5
SNB-19 = test system: SNB-19

SMILES | GI50 (UACC-62) | GI50 (SK-OV-3) | GI50 (MDA-MB-231) | GI50 (HCT-116) | GI50 (IGROV-1) | GI50 (OVCAR-4) | GI50 (K562) | GI50 (HCT-15) [µM] | GI50 (NCI-H460) | GI50 (SK-MEL-28) | GI50 (SF-539) | GI50 (MCF7) | GI50 (HL-60) | GI50 (OVCAR-3) | GI50 (OVCAR-8) | GI50 (UO-31) | GI50 (COLO 205) | GI50 (EKVX) | GI50 (SK-MEL-5) | GI50 (SNB-19)
NC(=S)SCCC(=O)O | > 100 µM (inactive) | > 100 µM (inactive) | > 100 µM (inactive) | > 100 µM (inactive) | > 100 µM (inactive) | > 100 µM (inactive) | > 100 µM (inactive) | > 100 | > 100 µM (inactive) | > 100 µM (inactive) | > 100 µM (inactive) | > 100 µM (inactive) | > 100 µM (inactive) | > 100 µM (inactive) | > 100 µM (inactive) | > 100 µM (inactive) | > 100 µM (inactive) | > 100 µM (inactive) | > 100 µM (inactive) | > 100 µM (inactive)
COC(=O)N1CC2(CO)C3CC=C(C(=O)Nc4ccccc4Br)C2C1C3Br (centres undefined) | > 50 µM (inactive) | > 50 µM (inactive) | > 50 µM (inactive) | – | > 50 µM (inactive) | > 50 µM (inactive) | > 50 µM (inactive) | > 50 | > 50 µM (inactive) | > 50 µM (inactive) | > 50 µM (inactive) | > 50 µM (inactive) | > 50 µM (inactive) | > 50 µM (inactive) | > 50 µM (inactive) | > 50 µM (inactive) | > 50 µM (inactive) | > 50 µM (inactive) | > 50 µM (inactive) | > 50 µM (inactive)
C=C1C(=O)OC2C1C(=O)C/C(C)=C/CCC1(C)OC21 (centres undefined) | 25.5 µM (inactive) | 29.6 µM (inactive) | 20.8 µM (inactive) | 14.8 µM (inactive) | 20.1 µM (inactive) | 18.7 µM (inactive) | 5.6 µM (inactive) | 11.4 | 21.2 µM (inactive) | 15.2 µM (inactive) | 15 µM (inactive) | 8.63 µM (inactive) | 1.33 µM (inactive) | 15.1 µM (inactive) | 25.6 µM (inactive) | 15.2 µM (inactive) | 5.45 µM (inactive) | 25.2 µM (inactive) | 19.3 µM (inactive) | 38.4 µM (inactive)
CC(C)/C(Cl)=N\OC(=O)Nc1cccc(F)c1 | 20.4 µM (inactive) | 19.7 µM (inactive) | 16.9 µM (inactive) | 16.1 µM (inactive) | 18.6 µM (inactive) | 11.7 µM (inactive) | 2.19 µM (inactive) | 15.8 | 27.4 µM (inactive) | 16.2 µM (inactive) | 18.6 µM (inactive) | 11 µM (inactive) | 1.96 µM (inactive) | 17 µM (inactive) | 17 µM (inactive) | 18.6 µM (inactive) | 2.44 µM (inactive) | 16.7 µM (inactive) | 15 µM (inactive) | > 100 µM (inactive)
O=C(O)[C@@H]1CCC(=O)N1C(c1ccc2c(c1)OCO2)c1ccc2c(c1)OCO2 | > 100 µM (inactive) | > 10 µM (inactive) | > 100 µM (inactive) | > 100 µM (inactive) | > 100 µM (inactive) | 35.2 µM (inactive) | > 100 µM (inactive) | > 100 | > 100 µM (inactive) | > 100 µM (inactive) | > 100 µM (inactive) | > 100 µM (inactive) | > 100 µM (inactive) | > 100 µM (inactive) | > 100 µM (inactive) | > 100 µM (inactive) | > 100 µM (inactive) | > 100 µM (inactive) | > 100 µM (inactive) | > 100 µM (inactive)
C#CC1(O)C(COP(=O)(O)OCC2OC(n3ccc(NCCCCCCCCCCCCCCCCCC)nc3=O)C(O)C2O)OC(n2ccc(N)nc2=O)C1O (centres undefined) | 0.614 µM (active) | 8.13 µM (inactive) | 1.03 µM (active) | 0.245 µM (active) | 0.218 µM (active) | 1.82 µM (inactive) | 0.278 µM (active) | 0.353 | 0.0519 µM (active) | 1.78 µM (inactive) | 1.16 µM (inactive) | 0.059 µM (active) | 0.298 µM (active) | 2.59 µM (inactive) | 1.07 µM (active) | 0.0716 µM (active) | 0.71 µM (active) | 8.24 µM (inactive) | 1.23 µM (inactive) | 2.71 µM (inactive)
C[C@@H]1C[C@H](O)[C@]2(O)O[C@@H]3C[C@@]4(C=O)[C@@H](CC=C5[C@@H]4CC[C@]4(C)[C@@H](C6=CC(=O)OC6)CC[C@]54O)C[C@H]3O[C@@H]2O1 | 0.0449 µM (active) | 0.0426 µM (active) | 0.144 µM (active) | 0.0143 µM (active) | < 0.0118 µM (active) | < 0.0106 µM (active) | < 0.0231 µM (active) | 0.0175 | < 0.0129 µM (active) | 0.128 µM (active) | < 0.0166 µM (active) | < 0.0188 µM (active) | 0.0171 µM (active) | 0.0131 µM (active) | < 0.0205 µM (active) | < 0.0247 µM (active) | 0.0984 µM (active) | < 0.01 µM (active) | < 0.0169 µM (active) | 0.218 µM (active)
CCCNc1[nH]c(C(C)=O)c(N)c1C(=S)Nc1ccccc1 | 17.9 µM (inactive) | 45.5 µM (inactive) | 36.6 µM (inactive) | 34.8 µM (inactive) | 0.507 µM (active) | 23.1 µM (inactive) | 43.4 µM (inactive) | 31.8 | 33.9 µM (inactive) | 24.7 µM (inactive) | 10.8 µM (inactive) | 19.2 µM (inactive) | 37.7 µM (inactive) | 42.4 µM (inactive) | 27.7 µM (inactive) | 0.782 µM (active) | 31.6 µM (inactive) | 35.2 µM (inactive) | 22.7 µM (inactive) | 38.4 µM (inactive)
COc1cc(OC(=O)c2ccccc2)cc2c1C(=O)C=CC2=O | 13.8 µM (inactive) | 20 µM (inactive) | 2.29 µM (inactive) | 6.35 µM (inactive) | 15.1 µM (inactive) | 5.4 µM (inactive) | 1.88 µM (inactive) | 11.9 | 34.2 µM (inactive) | 18.2 µM (inactive) | 20.1 µM (inactive) | 11 µM (inactive) | 0.556 µM (active) | 5.32 µM (inactive) | 18.9 µM (inactive) | 11.2 µM (inactive) | 16.2 µM (inactive) | 13.2 µM (inactive) | 16 µM (inactive) | 30.6 µM (inactive)
COC(=O)C1(Cc2cccc(C)c2)Cc2c(C)cccc2C1=O (centres undefined) | 46.8 µM (inactive) | 58.6 µM (inactive) | 52.8 µM (inactive) | 36.4 µM (inactive) | 46.9 µM (inactive) | 41.7 µM (inactive) | 35.9 µM (inactive) | 32.1 | 45.4 µM (inactive) | > 100 µM (inactive) | 38.4 µM (inactive) | 33.7 µM (inactive) | > 100 µM (inactive) | 24.5 µM (inactive) | 80.7 µM (inactive) | 42.6 µM (inactive) | 37.2 µM (inactive) | 29.1 µM (inactive) | 38.5 µM (inactive) | 98.9 µM (inactive)
COc1ccc2c(c1)c1c3c(ccc4ncn2c43)N(CCO)CCN=1 | 0.216 µM (active) | 0.305 µM (active) | 0.183 µM (active) | 0.0512 µM (active) | 2.02 µM (inactive) | 0.221 µM (active) | 0.0586 µM (active) | 0.195 | 0.132 µM (active) | 0.327 µM (active) | 0.0893 µM (active) | 0.189 µM (active) | 0.165 µM (active) | 0.213 µM (active) | 0.0927 µM (active) | 0.104 µM (active) | 0.101 µM (active) | 0.33 µM (active) | 0.188 µM (active) | 0.234 µM (active)
O=c1cc(CN2CCCCC2)nc2ccc3c(O)cc(CN4CCCCC4)nc3n12 | > 100 µM (inactive) | 48.4 µM (inactive) | > 100 µM (inactive) | > 100 µM (inactive) | > 100 µM (inactive) | > 100 µM (inactive) | > 100 µM (inactive) | > 100 | > 100 µM (inactive) | > 100 µM (inactive) | > 100 µM (inactive) | > 100 µM (inactive) | > 100 µM (inactive) | > 100 µM (inactive) | > 100 µM (inactive) | > 100 µM (inactive) | > 100 µM (inactive) | > 100 µM (inactive) | > 100 µM (inactive) | > 100 µM (inactive)
C#C/C=C\CCCCCCCCCCCCCC/C=C\CCCCC#CC(O)C#CCCCC/C=C\CCCCCC/C=C/C(O)C#C (centres undefined) | 11.8 µM (inactive) | > 75 µM (inactive) | 34.2 µM (inactive) | 4.67 µM (inactive) | 13.6 µM (inactive) | 6.38 µM (inactive) | 23.8 µM (inactive) | 22.5 | 39.9 µM (inactive) | 21 µM (inactive) | 29.6 µM (inactive) | 5.62 µM (inactive) | 13 µM (inactive) | 32.2 µM (inactive) | 23.3 µM (inactive) | 15.6 µM (inactive) | 14.1 µM (inactive) | 17 µM (inactive) | 5.89 µM (inactive) | 25.1 µM (inactive)
COc1ccc(/[N+]([O-])=C/c2ccc(OC(=S)S)c(OC)c2)cc1 | 99.3 µM (inactive) | 47.1 µM (inactive) | > 100 µM (inactive) | 28.5 µM (inactive) | 39.3 µM (inactive) | 17.4 µM (inactive) | 21.7 µM (inactive) | 22.2 | > 100 µM (inactive) | 52.2 µM (inactive) | 45.4 µM (inactive) | 5.58 µM (inactive) | 17.3 µM (inactive) | 43.9 µM (inactive) | 38.5 µM (inactive) | 44.6 µM (inactive) | 44.9 µM (inactive) | 31.4 µM (inactive) | 24.5 µM (inactive) | 43.6 µM (inactive)
